# US7348316B2, “Use of an anti-endotoxin drug in the prevention and treatment of disease” (Eisai R&D Management Co., Ltd., priority 2003, dated 2008)
# Test system: endotoxin
# Assay: administration of E5564 to humans / endotoxin challenge studies
# Type: in vivo
# Description: We have discovered that administration of E5564 to humans in a single bolus or by intermittent infusion is effective at preventing the clinical effects of endotoxemia. […] Thus, we have discovered drug administration regimens involving single bolus or intermittent infusion, to prevent or treat endotoxemia and related conditions and disorders (e.g., sepsis) in humans.
compound,measurement,setting,value
"CCCCCC/C=C\CCCCCCCCC[C@@H](O)N[C@H]1[C@H](OCC2O[C@H](OP(=O)(O)O)[C@H](NC(=O)CC(=O)CCCCCCCCCCC)[C@@H](OCCCCCCCCCC)[C@@H]2O)O[C@H](COC)[C@@H](OP(=O)(O)O)[C@@H]1OCC[C@@H](CCCCCCC)OC (stereo partly drawn) [Compound E5564, α-D-Glucopyranose, 3-O-decyl-2-deoxy-6-O-[2-deoxy-3-O-[(3R)-3-methoxydecyl)-6-O-methyl-2-[[(11Z)-1-oxo-11-octadecenyl)amino]-4-O-phosphono-β-D-glucopyranosyl]-2-[(1,3-dioxotetradecyl)amino]-,1-(dihydrogen phosphate)]",activity of the drug after cessation of administration,doses higher than the minimum dose found to be effective in endotoxin challenge studies,prolonged activity
same,preventing the clinical effects of endotoxemia,"humans, single bolus or intermittent infusion",effective
same,activity of the drug upon cessation of administration,previous studies,decreases rapidly
same,clearance from circulation upon cessation of administration,previous studies,not cleared from circulation
